Test results from patent US7915293B2, “Ubiquitin ligase inhibitors” (Rigel Pharmaceuticals, Inc., priority 2003, dated 2011).

Legend:
Design in all cases: key: “+” indicates that the compound exibits inhibitory activity; “−” indicates that low or no inhibitory activity was observed
HCT116 cells [1] = assay: Non-photographic proliferation analysis (Promega Cell titer Aqueous), HCT116; assay type: cell-based; conditions: 6 concentrations tested
Protocol: (§1) A549 (ATCC# CCL-185), HeLa (ATCC# CCL-2), HCT116 (ATCC# CCL-247), and H1299 (ATCC# CRL-5803) cells were maintained in T175 flasks following the ATCC recommended media and handling procedures. Flasks reaching approximately 70% confluency were trypsinized and resuspended in RPMI media (Cell-Gro catalog number 10-040-CM) modified to contain 5% FBS, 100 ug/mlPen/Strep (Cell-Gro catalog number 30-002-CL), and 0.3 mg/ml L-Glutamine (Cell-Gro catalog number 25-003-CL). A 20,000 cells/ml solution was made for plating. Cells were plated in black Packard 96 well plates by placing 100 μl per well (2,000 cells per well).
(§2) Compounds and additional media were added 24 hours after cell plating. A compound master plate was created with concentrations 500 times greater than the final concentration added to the cells. All compound testing was done in duplicate using 6.3 fold dilutions starting with 10 mM. All outside wells (and 4 internal wells) were DMSO controls. Taxol and at least one additional control were run on all plates. Three microliters of the compound master plate were added to deep well blocks containing 750 μl of RPMI media. One hundred microliters were transferred from the compound/media deep well blocks to the plated cells resulting in a 500 fold dilution of the compounds. Cells were grown at 37° C., 5% CO2 for 48 hours.
Some cell plates were treated with Promega Cell titer Aqueous 1 kit (promega—VWR catalog number G3580). In this case, 48 hours after the test compound were added, 100 μl of media were removed and 20 μl of cell titer reagent were added to all wells. Plates were incubated at 37° C. for 45 minutes prior to absorbance reads on the Wallac plate reader at 490 nm for 0.1 sec/well.

A549 cells [2] = assay: Non-photographic proliferation analysis (Promega Cell titer Aqueous), A549; assay type: cell-based; conditions: 6 concentrations tested
In short: (§3)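 HeLa, A549 and HCT116 cells, 2,000 per well in RPMI with 5% FBS, were given compounds 24 h after plating as 6.3-fold duplicate dilutions from 10 mM stock, diluted 500-fold into the wells. After 48 h at 37° C, 5% CO2, Cell titer Aqueous reagent was added for 45 min and absorbance read at 490 nm.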

A549 cells [3] = assay: Cell proliferation assay, photographic image analysis of proliferation, apoptosis and death (PAD assay), A549; assay type: cell-based; conditions: 6 concentrations tested
In short: (§4)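 Cells grown in RPMI with 5% FBS (2,000/well) and dosed 24 h after plating with 6.3-fold dilutions in duplicate (master plate 500× final, top 10 mM stock). After 48 h at 37 °C, cells formamide-fixed and DAPI-stained. Image analysis counted live, apoptotic and dead cells.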

HCT116 cells [4] = assay: Cell proliferation assay, photographic image analysis of proliferation, apoptosis and death (PAD assay), HCT116; assay type: cell-based; conditions: 6 concentrations tested
Protocol: as §1, §2
(§5) Cells to be analyzed by photography were fixed and stained. One hundred microliters of media were removed and 100 μl of 9.3% […] was added to each well. Plates were left on the benchtop for 45 minutes. A staining solution containing 1.55 μl of 1 mg/ml DAPI added to 18.75 ml PBS was warmed for 15 minutes at 37° C. The cells were aspirated prior to washing with 100 μl of PBS. Seventy microliters of PBS were aspirated and 170 μl of the DAPI solution were added to each well of fixed cells. Plates were left at room temperature for one hour then aspirated and washed twice with 100 μl of PBS. The stained cells were left at 4° C. for a minimum of 16 hours before photographic analysis with Array Scan II (Cellomics). Analysis of the photographic images to determine numbers of live cells (proliferation), apoptotic cells and dead cells, were according to the methods described in U.S. Provisional Patent Application Ser. No. 60/406,714, which incorporated herein in its entirety.

[5] = target: E3 (His-APC11/APC2-"APC") (Homo sapiens, UniProt Q9NYG5+Q9UJX6); assay: Plate-based E3 ligase assay (APC FLAG), auto-ubiquitination; assay type: biochemical; conditions: 8 concentrations tested
In short: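 His-APC11/APC2 auto-ubiquitination was run in casein-blocked nickel plates for 1 h at room temperature, with E1 at 5 ng/well, UbcH5c at 20 ng/well and APC at 100 ng/well. Buffer was 62.5 mM Tris pH 7.6, 3 mM MgCl2, 1 mM DTT, 2.5 mM ATP and Flag-ubiquitin at 100 ng/well. Detection used anti-Flag/HRP chemiluminescence, and IC50 was typically from 6 or 8 concentrations versus a DMSO control.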

HeLa cells [6] = assay: Cell proliferation assay, photographic image analysis of proliferation, apoptosis and death (PAD assay), HeLa; assay type: cell-based; conditions: 6 concentrations tested
In short: as §4

HeLa cells [7] = assay: Non-photographic proliferation analysis (Promega Cell titer Aqueous), HeLa; assay type: cell-based; conditions: 6 concentrations tested
In short: as §3

H1299 cells = assay: Cell proliferation assay, photographic image analysis of proliferation, apoptosis and death (PAD assay), H1299; assay type: cell-based; conditions: 6 concentrations tested
Protocol: as §1, §2, §5

MDM2 / p53 substrate = MDM2 / p53 substrate (Homo sapiens, UniProt Q00987); assay: Plate-based MDM2 substrate ligation assay (MDM2-P53-FLAG); assay type: biochemical; conditions: 8 concentrations tested
Source text: This assay was preformed essentially as described in WO 03/076899 (page 77, line 5 to page 80, line 13), hereby incorporated by reference in its entirety.

Sequence of E3 (His-APC11/APC2-"APC") (Q9NYG5 whole entry): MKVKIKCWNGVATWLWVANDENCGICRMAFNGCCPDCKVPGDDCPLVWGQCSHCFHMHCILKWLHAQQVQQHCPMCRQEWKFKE
Sequence of E3 (His-APC11/APC2-"APC") (Q9UJX6 whole entry): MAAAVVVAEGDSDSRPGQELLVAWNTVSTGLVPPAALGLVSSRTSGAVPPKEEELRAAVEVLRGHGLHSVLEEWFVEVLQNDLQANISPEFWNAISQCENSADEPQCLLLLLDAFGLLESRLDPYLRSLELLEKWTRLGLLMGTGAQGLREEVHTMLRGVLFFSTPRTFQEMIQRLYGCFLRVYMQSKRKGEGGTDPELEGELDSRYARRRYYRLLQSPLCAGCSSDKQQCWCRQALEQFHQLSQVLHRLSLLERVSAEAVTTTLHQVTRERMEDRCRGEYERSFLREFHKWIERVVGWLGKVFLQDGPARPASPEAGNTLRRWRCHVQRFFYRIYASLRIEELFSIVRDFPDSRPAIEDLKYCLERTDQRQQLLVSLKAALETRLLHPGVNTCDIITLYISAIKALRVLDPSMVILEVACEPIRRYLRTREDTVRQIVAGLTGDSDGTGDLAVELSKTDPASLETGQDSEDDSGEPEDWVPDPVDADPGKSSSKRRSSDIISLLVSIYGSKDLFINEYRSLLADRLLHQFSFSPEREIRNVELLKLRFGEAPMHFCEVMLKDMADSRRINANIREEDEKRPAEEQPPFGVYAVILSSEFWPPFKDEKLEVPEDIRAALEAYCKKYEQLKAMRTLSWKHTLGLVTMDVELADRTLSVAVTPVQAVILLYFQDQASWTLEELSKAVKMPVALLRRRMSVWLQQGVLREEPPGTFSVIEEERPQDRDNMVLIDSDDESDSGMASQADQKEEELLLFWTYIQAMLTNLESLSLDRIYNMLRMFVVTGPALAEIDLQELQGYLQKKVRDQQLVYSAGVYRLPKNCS
Sequence of MDM2 / p53 substrate (Q00987 whole entry): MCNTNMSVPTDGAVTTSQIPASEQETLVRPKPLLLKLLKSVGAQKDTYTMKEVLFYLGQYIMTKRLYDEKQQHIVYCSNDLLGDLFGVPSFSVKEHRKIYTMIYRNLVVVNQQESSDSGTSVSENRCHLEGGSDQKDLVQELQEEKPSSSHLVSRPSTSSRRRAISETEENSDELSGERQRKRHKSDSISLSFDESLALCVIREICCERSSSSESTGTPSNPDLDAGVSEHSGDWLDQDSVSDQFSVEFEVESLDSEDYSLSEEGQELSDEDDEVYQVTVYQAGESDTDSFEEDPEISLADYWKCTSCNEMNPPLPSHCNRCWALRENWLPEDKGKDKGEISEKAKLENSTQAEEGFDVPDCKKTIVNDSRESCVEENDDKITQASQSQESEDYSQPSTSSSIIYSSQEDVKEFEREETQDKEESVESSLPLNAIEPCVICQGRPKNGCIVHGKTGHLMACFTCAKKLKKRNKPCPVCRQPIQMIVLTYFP

SMILES: O=[N+]([O-])c1ccc(Oc2c(Cl)cc(S(=O)(=O)Nc3cccc(Cl)c3)cc2Cl)c(Cl)c1 [Compound 154, 3,5-dichloro-4-(2-chloro-4-nitrophenoxy)-N-(3-chlorophenyl)benzenesulfonamide]
- Cell Titer-Aqueous, HCT116 6 pt (HCT116 cells [1]): −
- Cell Titer-Aqueous, A549 6 pt (A549 cells [2]): +
- PAD Assay, A549 6 pt (A549 cells [3]): −
- PAD Assay, HCT116 6 pt (HCT116 cells [4]): −
- APC Flag 8 pt [5]: +
- PAD Assay, HELA 6 pt (HeLa cells [6]): −
- Cell Titer-Aqueous, HELA 6 pt (HeLa cells [7]): +

SMILES: O=[N+]([O-])c1ccc(Oc2c(Cl)cc(S(=O)(=O)Nc3ccc(Cl)c(Cl)c3)cc2Cl)c(Cl)c1 [Compound 167, 3,5-dichloro-4-(2-chloro-4-nitrophenoxy)-N-(3,4-dichlorophenyl)benzenesulfonamide]
- Cell Titer-Aqueous, A549 6 pt (A549 cells [2]): +
- PAD Assay, A549 6 pt (A549 cells [3]): +
- APC Flag 8 pt [5]: +
- PAD Assay, H1299 6 pt (H1299 cells): +
- PAD Assay, HELA 6 pt (HeLa cells [6]): +
- Cell Titer-Aqueous, HELA 6 pt (HeLa cells [7]): +

SMILES: O=[N+]([O-])c1ccc(Oc2c(Cl)cc(S(=O)(=O)Nc3cc(C(F)(F)F)ccc3Cl)cc2Cl)c(Cl)c1 [Compound 243, 3,5-dichloro-4-(2-chloro-4-nitrophenoxy)-N-(2-chloro-5-(trifluoromethyl)phenyl]benzenesulfonamide]
- PAD Assay, A549 6 pt (A549 cells [3]): +
- PAD Assay, HCT116 6 pt (HCT116 cells [4]): +
- APC Flag 8 pt [5]: +
- PAD Assay, H1299 6 pt (H1299 cells): +
- PAD Assay, HELA 6 pt (HeLa cells [6]): +

SMILES: O=S(=O)(Nc1cc(Cl)ccc1C(F)(F)F)c1cc(Cl)c(Oc2ccc(Cl)cc2Cl)c(Cl)c1 [Compound 249, 3,5-dichloro-N-[5-chloro-2-(trifluoromethyl)phenyl]-4-(2,4-dichlorophenoxy) benzenesulfonamide]
- PAD Assay, A549 6 pt (A549 cells [3]): +
- APC Flag 8 pt [5]: +
- PAD Assay, H1299 6 pt (H1299 cells): +
- PAD Assay, HELA 6 pt (HeLa cells [6]): +

SMILES: O=S(=O)(Nc1cc(C(F)(F)F)ccc1Cl)c1ccc(Oc2ncc(C(F)(F)F)cc2Cl)cc1 [Compound 254, N-[2-chloro-5-(trifluoromethyl)phenyl]-4-{[3-chloro-5-(trifluoromethyl)pyridin-2-yl]oxy}benzenesulfonamide]
- PAD Assay, A549 6 pt (A549 cells [3]): +
- PAD Assay, HCT116 6 pt (HCT116 cells [4]): +
- APC Flag 8 pt [5]: +
- PAD Assay, H1299 6 pt (H1299 cells): +
- PAD Assay, HELA 6 pt (HeLa cells [6]): +

SMILES: O=[N+]([O-])c1ccc(Oc2ccc(S(=O)(=O)Nc3cc(C(F)(F)F)ccc3Cl)cc2Cl)c(C(F)(F)F)c1 [Compound 264]
- PAD Assay, A549 6 pt (A549 cells [3]): +
- APC Flag 8 pt [5]: +
- PAD Assay, H1299 6 pt (H1299 cells): +
- PAD Assay, HELA 6 pt (HeLa cells [6]): +

SMILES: O=[N+]([O-])c1ccc(Oc2c(Cl)cc(S(=O)(=O)Nc3cccc(C(F)(F)F)c3)cc2Cl)c(Cl)c1 [Example 7, 3,5-dichloro-4-(2-chloro-4-nitrophenoxy)-N-[3-(trifluoromethyl)phenyl]benzene-sulfonamide]
- MDM2-P53 Flag 8 pt (MDM2 / p53 substrate): −

SMILES: O=[N+]([O-])c1ccc(Oc2c(Cl)cc(S(=O)(=O)Nc3ccc(F)cc3)cc2Cl)c(Cl)c1 [Example 23, 3,5-dichloro-4-(2-chloro-4-nitrophenoxy)-N-(4-fluorophenyl)benzenesulfonamide]
- Cell Titer-Aqueous, HCT116 6 pt (HCT116 cells [1]): +
- Cell Titer-Aqueous, A549 6 pt (A549 cells [2]): +
- PAD Assay, A549 6 pt (A549 cells [3]): +
- MDM2-P53 Flag 8 pt (MDM2 / p53 substrate): −
- APC Flag 8 pt [5]: +
- PAD Assay, HELA 6 pt (HeLa cells [6]): +
- Cell Titer-Aqueous, HELA 6 pt (HeLa cells [7]): +

SMILES: O=[N+]([O-])c1ccc(Oc2c(Cl)cc(S(=O)(=O)Nc3cc(Cl)cc(Cl)c3)cc2Cl)c(Cl)c1 [Example 24, 3,5-dichloro-4-(2-chloro-4-nitrophenoxy)-N-(3,5-dichlorophenyl)benzenesulfonamide]
- PAD Assay, A549 6 pt (A549 cells [3]): −
- MDM2-P53 Flag 8 pt (MDM2 / p53 substrate): +
- APC Flag 8 pt [5]: +

SMILES: O=C(NCC1CC1)c1ccccc1NS(=O)(=O)c1cc(Cl)c(Oc2ccc([N+](=O)[O-])cc2Cl)c(Cl)c1 [Example 123, N-(cyclopropylmethyl)-2-({[3,5-dichloro-4-(2-chloro-4-nitrophenoxy)phenyl]sulfonyl}amino)benzamide]
- Cell Titer-Aqueous, HCT116 6 pt (HCT116 cells [1]): +
- Cell Titer-Aqueous, A549 6 pt (A549 cells [2]): +
- PAD Assay, A549 6 pt (A549 cells [3]): +
- MDM2-P53 Flag 8 pt (MDM2 / p53 substrate): −
- APC Flag 8 pt [5]: +
- PAD Assay, HELA 6 pt (HeLa cells [6]): +
- Cell Titer-Aqueous, HELA 6 pt (HeLa cells [7]): +

SMILES: CS/C(=N\S(=O)(=O)c1cc(Cl)c(Oc2ccc([N+](=O)[O-])cc2Cl)c(Cl)c1)Nc1ccc(Cl)cc1 [Example 149, methyl N-(4-chlorophenyl)-N′-{[3,5-dichloro-4-(2-chloro-4-nitrophenoxy)phenyl]sulfonyl} imidothiocarbamate]
- Cell Titer-Aqueous, HCT116 6 pt (HCT116 cells [1]): +
- Cell Titer-Aqueous, A549 6 pt (A549 cells [2]): +
- PAD Assay, A549 6 pt (A549 cells [3]): +
- APC Flag 8 pt [5]: +
- PAD Assay, HELA 6 pt (HeLa cells [6]): +
- Cell Titer-Aqueous, HELA 6 pt (HeLa cells [7]): +

SMILES: O=[N+]([O-])c1ccc(Oc2c(Cl)cc(S(=O)(=O)Nc3cc(F)ccc3C(F)(F)F)cc2Cl)c(Cl)c1 [Example 235, 3,5-dichloro-4-(2-chloro-4-nitrophenoxy)-N-[5-fluoro-2-(trifluoromethyl)phenyl] benzenesulfonamide]
- PAD Assay, A549 6 pt (A549 cells [3]): +
- APC Flag 8 pt [5]: +
- PAD Assay, H1299 6 pt (H1299 cells): +
- PAD Assay, HELA 6 pt (HeLa cells [6]): +

SMILES: O=S(=O)(Nc1cc(Cl)ccc1Cl)c1ccc(Oc2ncc(C(F)(F)F)cc2Cl)cc1 [Example 253, 4-{[3-chloro-5-(trifluoromethyl)pyridin-2-yl]oxy}-N-(2,5-dichlorophenyl)benzene-sulfonamide]
- PAD Assay, A549 6 pt (A549 cells [3]): +
- PAD Assay, HCT116 6 pt (HCT116 cells [4]): +
- APC Flag 8 pt [5]: +
- PAD Assay, H1299 6 pt (H1299 cells): +
- PAD Assay, HELA 6 pt (HeLa cells [6]): +
